The values below come from patent US20240374587A1, “MEDICINE FOR PREVENTION AND TREATMENT OF DISEASES LINKED TO ANTI-OBESITY ACTIVITY” (Shionogi & Co., Ltd., priority 2021, published 2024).

human MGAT2, sequence (Q3SYC2 whole entry): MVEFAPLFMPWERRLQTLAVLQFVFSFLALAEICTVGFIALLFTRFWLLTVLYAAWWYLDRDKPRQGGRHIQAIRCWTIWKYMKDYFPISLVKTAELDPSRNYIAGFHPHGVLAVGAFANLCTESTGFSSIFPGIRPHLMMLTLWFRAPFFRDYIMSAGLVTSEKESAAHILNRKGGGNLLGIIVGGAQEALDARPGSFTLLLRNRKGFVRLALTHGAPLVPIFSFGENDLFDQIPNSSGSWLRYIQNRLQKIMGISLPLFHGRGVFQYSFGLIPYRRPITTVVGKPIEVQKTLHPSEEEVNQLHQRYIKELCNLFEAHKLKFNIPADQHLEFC

The first experiment concerns C57BL/6j mice (DIO mice). The experiment is described as follows: Anti-obesity effect test in DIO mice (body weight, food consumption). To be noted: 1st week of administration, semaglutide study. In kind it is in vivo. The arrangement: concentration or dose not given beside the values. As to the method:
The anti-obesity effect of the compound and/or agent according to the present invention was examined by using C57BL/6j mice (DIO mice) provided with a high-fat diet (TestDiet; 58Y1).
Five-week-old male C57BL/6j mice (CLEA Japan. Inc.) were purchased, and grown with feeding of a high-fat diet under 12-hour light-dark cycles for 4 weeks to produce DIO mice. A medium (0.5% HPMC and physiological saline) was administered once a day from 3 weeks before administration of the compound. Randomization was performed for grouping (n=9 to 10) on the basis of body weight and change in food consumption during the period of administration for conditioning. From Day 0 to Day 35, gavage of vehicle (0.5% HPMC and physiological saline) (hereinafter, Control group), gavage of Compound (A) according to the present invention (hereinafter, (A)-administration group), subcutaneous administration of GLP-1 formulation (liraglutide or semaglutide) as Compound (B) according to the present invention (hereinafter, (B)-administration group), or both (hereinafter, the combined administration group) were performed once a day. The GLP-1 formulation was formulated in an increasing dose, and liraglutide and semaglutide were administered at 4 to 20 μg/kg and:3 to 15 μg/kg, respectively, once a day. During the administration period, daily body weight measurement and food consumption measurement once a week were performed.
As to semaglutide [reference compound], the “Rate of decrease in food consumption relative to control group” value came out at 8.5%.

The experiment is the same for the next values; noted with them: 2nd week of administration, semaglutide study.
On to semaglutide [reference compound], for which the “Rate of decrease in food consumption relative to control group” value was found to be 33.1%.

The experiment is the same for the next values; noted with them: 3rd week of administration, semaglutide study.
As for semaglutide [reference compound], the “Rate of decrease in food consumption relative to control group” value came to 18.2%.

The same experiment, now with this note: 4th week of administration, semaglutide study.
Regarding semaglutide [reference compound], the “Rate of decrease in food consumption relative to control group” value came to 10.9%.

The experiment is the same for the next values; noted with them: 5th week of administration, semaglutide study.
As to semaglutide [reference compound], the “Rate of decrease in food consumption relative to control group” value came to 6.0%.

The same experiment, now with this note: at final administration (Day 0 to Day 35, once a day), semaglutide study (FIG. 2).
For the compound semaglutide [reference compound], the “Rate of decrease in body weight relative to control group” value worked out at 18.0%.

Another experiment has as its target human MGAT2 (Homo sapiens (Human), UniProt Q3SYC2). The experiment is described as follows: Measurement of human MGAT2 inhibitory activity. To be noted: concentration exhibiting 50% enzyme inhibition. Format: biochemical. The procedure:
Solutions of the compounds of the present invention in DMSO were each aliquoted into 0.2·μL portions in a 384-well polystyrene microplate produced by Corning Incorporated, and 5 μL of an enzyme solution prepared with an assay buffer (100 mmol/L phosphate buffer (pH 7.4) containing 2 mmol/L DTT) and 5 μL of a substrate solution (100 mmol/L phosphate buffer (pH 7.4), 30 μmol/L 2-Oleoylglycerol, 10 μmol/L Oleoyl-CoA) were added thereto, and the resultant was stirred and centrifuged, and incubated in a moist chamber at room temperature for 1 hour. After enzymatic reaction, 50 μL of a quenching solution (containing 0.2 μmol/L Diolein-d5, 0.4% formic acid, and 50% isopropanol) containing Internal Standard (IS) was added to terminate the reaction, and the resultant was sealed in a plate produced by Shimadzu GLC Ltd., and then stirred and centrifuged, and measurement was performed by using an electrospray ionization method with a RapidFire360 and Agilent 6550 Q-TOF mass spectrometer. Diolein as a reaction product (P) of 2-Oleoylglycerol as the substrate and an ammonium adduct ion of the IS were detected, and the peak intensity ratio, P/IS, was calculated from the peak heights to evaluate the inhibitory activity. Inhibitory activities with/without addition of enzyme were defined as Control (+)/Control (−), respectively, and the respective % inhibitions were defined as 0% inhibition and 100% inhibition. The inhibitory activity was calculated from the formula below with TIBCO Spotfire (produced by TIBCO Software Inc.) with the peak intensity ratio, P/IS, at the time of addition of the compound of the present invention being as Sample: […]
In general, IC50 refers to the concentration at which inhibition is half-maximal. The compound `CS(=O)(=O)CC(=O)Nc1c2c(nn1CCCOC(F)(F)F)C[C@]1(CCc3cc(OCC(F)(F)F)ccc31)NC2=O` [Compound I-253] returned an IC50 of 1.4 nM.

On to `CS(=O)(=O)CC(=O)Nc1c(-c2ccc(Cl)cn2)nn2c1C(=O)N[C@]1(CCc3cc(F)cc(F)c31)C2` [I′-147], for which the IC50 stood at 3.5 nM. `CS(=O)(=O)CC(=O)Nc1c2c(nn1-c1ccc(F)cn1)C[C@]1(CCOc3cc(OCC(F)(F)F)ccc31)NC2=O` [II-295] had an IC50 of less than 1 nM. `Cc1ccc(-n2nc3c(c2NC(=O)CS(C)(=O)=O)C(=O)N[C@@]2(CCOc4cc(OCC(C)(F)F)ccc42)C3)nc1` [II-151] returned an IC50 of 2.05 nM. Still for that read-out and setting: next, `CS(=O)(=O)CC(=O)Nc1c2c(nn1-c1ccc(C(F)F)cc1)C[C@]1(CCc3cc(OCC(F)(F)F)ccc31)NC2=O` [II-174]: 2.16 nM; `Cc1cc(-n2nc3c(c2NC(=O)CS(C)(=O)=O)C(=O)N[C@@]2(CCOc4cc(OCCCC(F)(F)F)ccc42)C3)no1` [II-233]: 0.22 nM; `CCS(=O)(=O)CC(=O)Nc1c(-c2ccc(C)cn2)nn2c1C(=O)N[C@@]1(CCOc3cc(F)cc(F)c31)C2` [I′-136]: 4.97 nM. Take `CS(=O)(=O)CC(=O)Nc1c(-c2ccc(Cl)cn2)nn2c1C(=O)N[C@@]1(CCc3cc(F)cc(F)c31)C2` [I′-142]: the IC50 is 2.88 nM. `CS(=O)(=O)CC(=O)Nc1c2c(nn1-c1ccc(C#N)cn1)C[C@]1(CCc3cc(OCC(F)(F)F)ccc31)NC2=O` [Compound I-190] had an IC50 of 2.9 nM. For `CS(=O)(=O)CC(=O)Nc1c2c(nn1-c1ccccc1)C[C@]1(CCc3cc(OCCCC(F)(F)F)ccc31)NC2=O` [Compound I-034], the midpoint of inhibition, the IC50, lay at 18 nM. Same read-out and setting: then `CS(=O)(=O)CC(=O)Nc1c(-c2ccc(F)c(F)c2)nn2c1C(=O)N[C@@]1(CCc3cc(F)cc(F)c31)C2` [I′-130], with 4.51 nM; and `CS(=O)(=O)CC(=O)Nc1c(CCC2CC2)nn2c1C(=O)N[C@@]1(CCc3cc(OCC(F)(F)F)ccc31)C2` [I′-046], with 1.17 nM; and `CS(=O)(=O)CC(=O)Nc1c2c(nn1CCCOC(F)(F)F)C[C@@]1(CCc3cc(OCC(F)(F)F)cc(F)c31)NC2=O` [II-093], with 1.21 nM. The same measure, in the same setting: next, `CS(=O)(=O)CC(=O)Nc1c(-c2ccc(Cl)cn2)nn2c1C(=O)N[C@]1(CCOc3cc(F)cc(F)c31)C2` [I′-151]: 5.33 nM. `CS(=O)(=O)CC(=O)Nc1c2c(nn1CCC1CC1)C[C@]1(CCc3cc(OCC(F)(F)F)ccc31)NC2=O` [Compound I-008] yielded an IC50 of 2.78 nM.

Consider `CS(=O)(=O)CC(=O)Nc1c(-c2ccc(F)c(F)c2)nn2c1C(=O)N[C@@]1(CCOc3cc(F)cc(F)c31)C2` [I′-126], for which the IC50 was found to be 1.59 nM. `CS(=O)(=O)CC(=O)Nc1c2c(nn1-c1ccc(F)c(F)c1)C[C@]1(CCOc3cc(CCC(F)(F)F)ccc31)NC2=O` [II-225]: the IC50 is 1.14 nM. Consider `CS(=O)(=O)CC(=O)Nc1c(-c2ccc(C3CC3)cn2)nn2c1C(=O)N[C@@]1(CCOc3cc(F)cc(F)c31)C2` [I′-143], for which the IC50 turned out to be 3.43 nM. Same read-out and setting: next, `Cc1ccc(-n2nc3c(c2NC(=O)CS(C)(=O)=O)C(=O)N[C@@]2(CCOc4cc(C5CC5)ccc42)C3)nc1` [II-168]: 1.88 nM. `CS(=O)(=O)CC(=O)Nc1c2c(nn1-c1ccccn1)C[C@]1(CCc3cc(OCCCC(F)(F)F)ccc31)NC2=O` [Compound I-023] showed an IC50 of 6.5 nM. In turn, `Cc1ccc(-n2nc3c(c2NC(=O)CS(C)(=O)=O)C(=O)N[C@@]2(CCc4cc(OCCCC(F)(F)F)ccc42)C3)nn1` [II-103] registered an IC50 of 1.61 nM.

In the case of `CS(=O)(=O)CC(=O)Nc1c(-c2ccc(C(F)F)cn2)nn2c1C(=O)N[C@@]1(CCOc3cc(F)cc(F)c31)C2` [I′-153], the IC50 was 2.23 nM. Still for that read-out and setting: next, `Cc1ccc(-n2nc3c(c2NC(=O)CS(C)(=O)=O)C(=O)N[C@@]2(CCOc4cc(F)cc(F)c42)C3)nc1` [II-203]: 2.98 nM; `CS(=O)(=O)CC(=O)Nc1c(CCC(F)(F)F)nn2c1C(=O)N[C@@]1(CCc3cc(OCC(F)(F)F)ccc31)C2` [I′-058]: 9.78 nM; `Cc1ccc(-c2nn3c(c2NC(=O)CS(C)(=O)=O)C(=O)N[C@@]2(CCc4cc(OCC(F)(F)F)ccc42)C3)cc1` [I′-020]: 1.97 nM. The compound `CS(=O)(=O)CC(=O)Nc1c(-c2ccc(C(F)F)cc2)nn2c1C(=O)N[C@@]1(CCOc3cc(F)cc(F)c31)C2` [I′-145] registered an IC50 of 2.9 nM.

`CS(=O)(=O)CC(=O)Nc1c(-c2ccc(F)cc2)nn2c1C(=O)N[C@@]1(CCOc3cc(OCC(F)(F)F)ccc31)C2` [I′-066] registered an IC50 of 0.85 nM. The same measure, in the same setting: next, `Cc1ccc(-c2nn3c(c2NC(=O)CS(C)(=O)=O)C(=O)N[C@@]2(CCOc4cc(F)cc(F)c42)C3)nc1` [I′-124]: 6.5 nM; `CS(=O)(=O)CC(=O)Nc1c2c(nn1CCCC(F)(F)F)C[C@@]1(CCc3cc(OCC(F)(F)F)ccc31)NC2=O` [Compound I-212]: 6.9 nM. Compound `CS(=O)(=O)CC(=O)Nc1c(-c2ccc(F)c(F)c2)nn2c1C(=O)N[C@@]1(CCc3cc(OCC(F)(F)F)ccc31)C2` [I′-033] had an IC50 of 0.73 nM. On the same count and under the same terms, next, `Cc1ccc(-n2nc3c(c2NC(=O)CS(C)(=O)=O)C(=O)N[C@@]2(CCc4cc(OCC(F)(F)F)ccc42)C3)nc1` [Compound I-236]: 2.8 nM; `CCOc1ccc2c(c1)OCC[C@]21Cn2nc(-c3ccc(F)c(F)c3)c(NC(=O)CS(C)(=O)=O)c2C(=O)N1` [I′-133]: 1.39 nM; `CCS(=O)(=O)CC(=O)Nc1c(-c2ccc(F)cn2)nn2c1C(=O)N[C@@]1(CCc3cc(F)cc(F)c31)C2` [I′-123]: 8.48 nM. Still for that read-out and setting: then `CS(=O)(=O)CC(=O)Nc1c(-c2ccc(Cl)cn2)nn2c1C(=O)N[C@@]1(CCOc3cc(F)cc(F)c31)C2` [I′-137], with 1.53 nM; and `Cc1ccc(-c2nn3c(c2NC(=O)CS(C)(=O)=O)C(=O)N[C@@]2(CCc4cc(F)cc(F)c42)C3)nc1` [I′-139], with 15.8 nM. Same read-out and setting: then `Cc1ccc(-c2nn3c(c2NC(=O)CS(C)(=O)=O)C(=O)N[C@@]2(CCc4cc(OCC(F)(F)F)ccc42)C3)nc1` [I′-006], with 2.25 nM. As to `Cc1ccc(-n2nc3c(c2NC(=O)CS(C)(=O)=O)C(=O)N[C@@]2(CCOc4cc(OCC(F)(F)F)ccc42)C3)nc1` [Compound I-275], the midpoint of inhibition, the IC50, lay at 2 nM. As for `CS(=O)(=O)CC(=O)Nc1c(-c2ccc(C3CC3)cn2)nn2c1C(=O)N[C@@]1(CCc3cc(F)cc(F)c31)C2` [I′-141], the IC50 came out at 6.42 nM.

Compound `CS(=O)(=O)CC(=O)Nc1c(-c2ccc(F)cc2)nn2c1C(=O)N[C@]1(CCc3cc(OCC(F)(F)F)ccc31)C2` [I′-079] yielded an IC50 of 1.13 nM.
